Measured values: the supplement of paper PMC10307832

What was measured:
Assay in all cases: relative viability (nuclei count vs DMSO), 5 days (fraction); higher = more cells survive
[1] = test system: A549
Procedure, shortened: (§1)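 Relative viability equals treated-well nuclei counts divided by vehicle-well nuclei counts. Counts came from 4× images of lung cancer cell lines grown in 1536-well plates for 5 days after pin-tool dosing on the day after seeding. Dosing used one drug alone or a fixed anchor-drug dose plus five library-drug doses (not always all listed) in √10 steps, and values are medians of duplicate plates.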

[2] = test system: Calu-6
Procedure, shortened: as §1

[3] = test system: EBC-1
Procedure, shortened: as §1

[4] = test system: EMC-BAC-2
Procedure, shortened: as §1

[5] = test system: HCC-366
Procedure, shortened: as §1

[6] = test system: HCC-78
Procedure, shortened: as §1

[7] = test system: IA-LM
Procedure, shortened: as §1

[8] = test system: LCLC-97TM1
Procedure, shortened: as §1

[9] = test system: NCI-H1299
Procedure, shortened: as §1

[10] = test system: NCI-H1395
Procedure, shortened: as §1

[11] = test system: NCI-H1703
Procedure, shortened: as §1

For `CCNC(=O)c1noc(-c2cc(C(C)C)c(O)cc2O)c1-c1ccc(CN2CCOCC2)cc1` [Luminespib] + CC1(C)CCC(c2ccc(Cl)cc2)=C(CN2CCN(c3ccc(C(=O)NS(=O)(=O)c4ccc(N[C@H](CCN5CCOCC5)CSc5ccccc5)c(S(=O)(=O)C(F)(F)F)c4)cc3)CC2)C1 [Navitoclax] (partner 0.5 µM), the relative viability ([1]; first compound 0.002 µM) was 1.22, the relative viability ([1]; first compound 0.006325 µM) was 1.15 and the relative viability ([1]; first compound 0.02 µM) was 1.11. The relative viability ([1]; first compound 0.06325 µM) was 0.0452, the relative viability ([1]; first compound 0.2 µM) was 0.0433 and the relative viability ([2]; first compound 0.002 µM) was 0.836. For the same compound, the relative viability ([2]; first compound 0.006325 µM) was 0.772, the relative viability ([2]; first compound 0.02 µM) was 1.08 and the relative viability ([2]; first compound 0.06325 µM) was 0.116. It also gave a relative viability ([2]; first compound 0.2 µM) of 0.107, a relative viability ([3]; first compound 0.002 µM) of 0.489 and a relative viability ([3]; first compound 0.006325 µM) of 0.488. The relative viability ([3]; first compound 0.02 µM) was 0.241, the relative viability ([3]; first compound 0.06325 µM) was 0.142 and the relative viability ([3]; first compound 0.2 µM) was 0.133. The relative viability ([4]; first compound 0.002 µM) was 1.15, the relative viability ([4]; first compound 0.006325 µM) was 1.09 and the relative viability ([4]; first compound 0.02 µM) was 1.12. It also gave a relative viability ([4]; first compound 0.06325 µM) of 1.16, a relative viability ([4]; first compound 0.2 µM) of 1.13 and a relative viability ([5]; first compound 0.002 µM) of 1.11. For the same compound, the relative viability ([5]; first compound 0.006325 µM) was 0.981, the relative viability ([5]; first compound 0.02 µM) was 0.966 and the relative viability ([5]; first compound 0.06325 µM) was 0.0276. The relative viability ([5]; first compound 0.2 µM) was 0.0215, the relative viability ([6]; first compound 0.002 µM) was 0.874 and the relative viability ([6]; first compound 0.06325 µM) was 1.12. For the same compound, the relative viability ([6]; first compound 0.2 µM) was 0.21, the relative viability ([7]; first compound 0.002 µM) was 0.752 and the relative viability ([7]; first compound 0.006325 µM) was 0.792. For the same compound, the relative viability ([7]; first compound 0.02 µM) was 0.549, the relative viability ([7]; first compound 0.06325 µM) was 0.061 and the relative viability ([7]; first compound 0.2 µM) was 0.058. It also gave a relative viability ([8]; first compound 0.002 µM) of 0.3, a relative viability ([8]; first compound 0.006325 µM) of 0.538 and a relative viability ([8]; first compound 0.02 µM) of 0.31. It also gave a relative viability ([8]; first compound 0.06325 µM) of 0.411, a relative viability ([8]; first compound 0.2 µM) of 0.338 and a relative viability ([9]; first compound 0.002 µM) of 1.03. For the same compound, the relative viability ([9]; first compound 0.006325 µM) was 1.01, the relative viability ([9]; first compound 0.02 µM) was 1.07 and the relative viability ([9]; first compound 0.06325 µM) was 0.975. For the same compound, the relative viability ([9]; first compound 0.2 µM) was 0.295, the relative viability ([10]; first compound 0.002 µM) was 1.42 and the relative viability ([10]; first compound 0.006325 µM) was 1.16. It also gave a relative viability ([10]; first compound 0.02 µM) of 0.949, a relative viability ([10]; first compound 0.06325 µM) of 0.407 and a relative viability ([10]; first compound 0.2 µM) of 0.338. The relative viability ([11]; first compound 0.002 µM) was 1.34, the relative viability ([11]; first compound 0.006325 µM) was 0.925 and the relative viability ([11]; first compound 0.02 µM) was 0.371. The relative viability ([11]; first compound 0.06325 µM) was 0.147 and the relative viability ([11]; first compound 0.2 µM) was 0.138.
